Patent US8097585B2, “Methods of treating inflammation by administration of heme oxygenase-1 and products of heme degradation” (priority 2002, dated 2012)
Structures can show the parent of a compound that is named as a salt.

How the values were obtained:
[1] = test system: HO-1; test: HO-1 expression in colonic tissue during DSS-colitis (Western blot, semi-quantitative PCR); type: in vivo, C57BL/6 mice; conditions: CoPP 5 mg/kg i.p. daily, entire 7 day period
Method: Western Blot Analysis. Tissue samples from the distal colon of the animals were removed and snap frozen with liquid nitrogen. The frozen tissue was ground thoroughly and homogenized in Ripa buffer supplemented with proteinase inhibitors. The protein concentration was determined by the Bio-Rad Dc Protein Assay™ according manufacturers instructions (Bio-Rad, Hercules, Calif.). Electrophoresis was performed under denaturing conditions according to Laemmli with 10% polyacrylamide gels by loading 35 μg protein. Proteins were transferred onto a polyvinyldifluoridine membrane (Immobilon P™; Millipore, Bedford, Mass.) by electroblotting. Proteins were then detected with rabbit polyclonal antibodies directed against human HO-1 (StressGen, Victoria, Canada) or β-tubulin (Boehringer Mannheim, Mannheim, Germany). Proteins were visualized using HRP-conjugated donkey anti-rabbit IgG or goat anti-mouse IgG (Pierce) and the ECL assay (Amersham Life Science, Arlington Heights, Ill.), according to manufacturer's instructions.
Semi-Quantitative PCR. RNA was extracted using RNeasy Mini Kits (Qiagen Inc., CA, USA) and reverse transcribed into cDNA with the RNA PCR Kit (TaKaRa, PanVera, Madison, Wis., USA). […] PCR products (10-20 μl) were analyzed in an ethidium bromide-stained 1% agarose gel.

[2] = test system: intestinal graft; test: Graft permeability, everted gut sac method with FD4; type: in vivo, LEW rats; conditions: BV treated grafts
Method: Graft permeability. The preparation of everted gut sacs was performed in ice-cold modified Krebs-Henseleit bicarbonate buffer [KHBB (pH 7.4)] consisting of 10 mM HEPES, 137.0 mM NaCl, 5.36 mM KCl, 4.17 mM NaHCO3, 0.34 mM Na2HPO4, 0.44 mM KH2PO4, 0.41 mM MgSO47H2O, 0.49 mM MgCl26H20, 1.26 mM CaCl2, and 19.45 mM glucose. One end of the gut segment was ligated with 4-0 silk. The resulting gut sac was everted using a thin plastic rod. A groove was cut into the tip of a 5 ml plastic syringe and 1.5 mL of KHBB was drawn into the syringe. The open end of the everted gut sac was secured to the groove using 4-0 silk, and the intestine was gently distended by injecting the KHBB from the syringe. […] Following a 30 min incubation, the length of the sac was measured, and 1.0 mL of the fluid within the gut sac was collected. […] Subsequently, 300 ul of the supernatant was diluted with 3.0 mL of phosphate buffered saline, and the fluorescence of the solution was measured using a Perkin-Elmer LS-50 fluorescence spectrophotometer (Palo Alto, Calif.) at an excitation wave length of 492 nm (slit width=10.0 nm) and an emission wavelength of 515 nm (slit width=[…]).
Graft permeability. […] Graft permeability was determined by the everted gut sac method using 4 Kd Fluorescein isothiocyanate dextran.

[3] = test system: SITx recipients; test: Animal survival after SITx with 6 hours cold preservation; type: in vivo, LEW rats; conditions: 14 days follow-up; 8/8; saline control 57.1%
Method: Small Intestinal Transplantation. Orthotopic small intestinal transplantation (SITx) was performed in syngeneic Lewis rats. SITx with caval drainage was performed using a previously described procedure (Murase et al., in Handbook of Animal Models in Transplantation Research, Cramer et al., Eds. CRC Press, Boca Raton, Fla., pp. 203-213 (1994)). […] The graft was perfused via the aortic segment with 5 ml chilled Ringer's lactate solution, and the intestinal lumen was irrigated with 20 ml of cold saline solution containing 0.5% neomycin-sulfate (Sigma, St. Louis, Mo.). End-to-side anastomoses between the graft aorta and the recipient infrarenal aorta, and between the graft portal vein and recipient vena cava, were performed with 10-0 Novafil™ suture. […] The entire recipient intestine was removed and the enteric continuity was restored by proximal and distal end-to-end intestinal anastomoses. Recipient animals were given 20 mg/day prophylactic cefamandole nafate for 3 postoperative days. Transplanted recipients were given water 3 hours after surgery, and were fed 24 hours after surgery.
Animal survival. Six hours of cold preservation in UW of the intestinal graft induced intestinal dysfunction in untreated recipients; 3 out of 14 control animals died within 24 hours and an additional 3 animals died 5 and 7 days after SITx due to bowel obstruction secondarily to intestinal I/R injury. […]

C=CC1=C(C)c2cc3[n-]c(cc4nc(cc5[n-]c(cc1n2)c(C)c5CCC(=O)[O-])C(CCC(=O)[O-])=C4C)c(C)c3C=C.[Co+2].[H+].[H+] [CoPP, Cobalt protoporphyrin]
HO-1 protein in the intestine [1]: consistently high levels of HO-1 protein

C=CC1=C(C)/C(=C/C2=NC(=C\c3[nH]c(/C=C4\NC(=O)C(C)=C4C=C)c(C)c3CCC(=O)O)/C(CCC(=O)O)=C2C)NC1=O [biliverdin, biliverdin dihydrochloride]
inhibition of the increase of intestinal permeability [2]: ~60%
overall animal survival [3]: 100%
